± gives the standard deviation of the averaged measurements.
Columns and labels:
[1] = system: Homo sapiens (human subject panel, olfactory perception); experiment: perceived odor familiarity rating (rating 0-100); higher = more familiar
Method: (§1)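 Human olfactory psychophysics. 55 healthy subjects (after excluding 6 low performers) sniffed 1 mL of each odorant diluted in paraffin oil (vials, two dilutions per molecule, 20 molecules presented twice). Each subject rated intensity, pleasantness and familiarity on a 0-100 slider, starting at 50 and required to move. Ratings were given only when the subject reported detecting a smell; per-subject ratings are averaged over subjects.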

[2] = system: Homo sapiens (human subject panel, olfactory perception); experiment: perceived odor intensity rating (rating 0-100); higher = stronger perceived smell
Method: as §1

[3] = system: Homo sapiens (human subject panel, olfactory perception); experiment: perceived odor pleasantness rating (rating 0-100); higher = more pleasant
Method: as §1

[4] = odor dilution in paraffin oil: 1/10
[5] = odor dilution in paraffin oil: 1/1,000
[6] = odor dilution in paraffin oil: 1/100,000
[7] = odor dilution in paraffin oil: 1/10,000,000

Structure (SMILES)	perceived odor familiarity rating [1, 4]	perceived odor familiarity rating [1, 5]	perceived odor intensity rating [2, 4]	perceived odor intensity rating [2, 5]	perceived odor pleasantness rating [3, 4]	perceived odor pleasantness rating [3, 5]	perceived odor familiarity rating [1, 6]	perceived odor familiarity rating [1, 7]	perceived odor intensity rating [2, 6]	perceived odor intensity rating [2, 7]	perceived odor pleasantness rating [3, 6]	perceived odor pleasantness rating [3, 7]
CCCCCCCCCCCO [1-undecanol]	51 ± 32	37.1 ± 30	74.9 ± 24	42.8 ± 32	41 ± 28	41.9 ± 28	–	–	–	–	–	–
CSCCCO [3-(methylthio)-1-propanol]	–	–	–	–	–	–	53.7 ± 31	43.2 ± 31	82.2 ± 17	66.3 ± 26	22.9 ± 26	24.8 ± 22
CC(C)C[C@H](N)C(=O)O [L-Leucine]	45.5 ± 31	42.9 ± 31	70.9 ± 27	46.9 ± 29	22.9 ± 26	46.4 ± 27	–	–	–	–	–	–
CCCCOC(=O)CCC [butyl butyrate]	–	49.7 ± 28	–	57.9 ± 27	–	38.1 ± 26	41.3 ± 30	–	25.5 ± 29	–	48 ± 24	–
CCCC(=O)OC [Methyl butyrate]	–	48.2 ± 29	–	79.2 ± 19	–	32.9 ± 31	45.1 ± 32	–	42.8 ± 30	–	27.8 ± 25	–
O=C1CCCC1 [Cyclopentanone]	48.9 ± 34	33.1 ± 30	81.4 ± 23	52.3 ± 33	29.6 ± 25	36 ± 25	–	–	–	–	–	–
CCCCCCC(=O)OCC [Ethyl heptanoate]	–	59.4 ± 27	–	69.1 ± 23	–	62.6 ± 26	44.3 ± 29	–	34.8 ± 28	–	55.9 ± 25	–
CCCCCCCCCC(OC)OC [Decanal dimethyl acetal]	47.6 ± 34	41.2 ± 34	70.7 ± 25	29.7 ± 30	50.2 ± 29	53.6 ± 22	–	–	–	–	–	–
CC/C=C\CCC=O [cis-4-Heptenal]	–	–	–	–	–	–	46.1 ± 33	45.2 ± 31	66.8 ± 29	56.2 ± 31	28.7 ± 25	32.5 ± 26
COC(=O)CCC(=O)OC [dimethyl succinate]	46.2 ± 31	43.2 ± 29	63.2 ± 28	53.9 ± 29	49.1 ± 27	43.6 ± 22	–	–	–	–	–	–
CC12CCC(CC1=O)C2(C)C [D-Camphor]	81 ± 26	68.5 ± 25	89.8 ± 17	63.8 ± 31	52.1 ± 30	52.3 ± 28	–	–	–	–	–	–
O.O.O=P([O-])([O-])O.[Na+].[Na+] [Sodium phosphate dibasic]	40.5 ± 32	31.5 ± 24	27.2 ± 27	24.1 ± 25	63.4 ± 26	46.2 ± 26	–	–	–	–	–	–
SCCc1cnccn1 [Pyrazineethanethiol]	–	–	–	–	–	–	37.2 ± 33	29.8 ± 25	33.8 ± 38	23.6 ± 22	45.4 ± 26	49.2 ± 20
OCCCCCc1ccccc1 [5-Phenyl-1-pentanol]	–	49.2 ± 29	–	53.4 ± 30	–	53.6 ± 22	34.5 ± 32	–	17.2 ± 22	–	56.8 ± 23	–
CC(=O)c1ccccc1 [acetophenone]	–	61.3 ± 31	–	81.5 ± 17	–	52.8 ± 30	42.6 ± 30	–	45.1 ± 29	–	52.7 ± 26	–
CC(=O)CCC=C(C)C [6-Methyl-5-hepten-2-one]	–	51.9 ± 31	–	70.7 ± 23	–	48.6 ± 30	31.9 ± 29	–	22.4 ± 25	–	52.6 ± 23	–
CCCCCCCCCCC(=O)O [Undecanoic acid]	45.9 ± 32	41.9 ± 34	81.8 ± 19	57.4 ± 33	22.9 ± 21	31.1 ± 24	–	–	–	–	–	–
COc1ccc2ccccc2c1 [Nerolin Yara Yara]	59.7 ± 28	58 ± 26	82.7 ± 15	71.5 ± 22	54.3 ± 29	61.6 ± 26	–	–	–	–	–	–

Structure (SMILES)	perceived odor familiarity rating [1, 4]	perceived odor familiarity rating [1, 5]	perceived odor intensity rating [2, 4]	perceived odor intensity rating [2, 5]	perceived odor pleasantness rating [3, 4]	perceived odor pleasantness rating [3, 5]	perceived odor familiarity rating [1, 6]	perceived odor familiarity rating [1, 7]	perceived odor intensity rating [2, 6]	perceived odor intensity rating [2, 7]	perceived odor pleasantness rating [3, 6]	perceived odor pleasantness rating [3, 7]
CCCCC/C=C\C/C=C\CCCCCCCC(=O)O [Linoleic acid]	48.7 ± 34	41.2 ± 27	90.8 ± 13	64.8 ± 23	13.9 ± 15	31.2 ± 21	–	–	–	–	–	–
CC(=O)c1ncc(C)nc1C [2-Acetyl-3,5(6)-dimethylpyrazine]	–	58.6 ± 36	–	85.4 ± 17	–	31.5 ± 32	58.1 ± 31	–	65.1 ± 26	–	49.4 ± 29	–
CC(C)(C)O [tert-butanol]	47.5 ± 32	34.7 ± 29	56 ± 32	24.8 ± 30	44.9 ± 24	58.8 ± 22	–	–	–	–	–	–
CC(=O)OC1CC(C)CCC1C(C)C [L-Menthyl acetate (replicate)]	56.9 ± 30	39.2 ± 30	59.6 ± 29	34.3 ± 28	61.6 ± 21	58.9 ± 18	–	–	–	–	–	–
CSSSC [Dimethyl trisulfide (replicate)]	–	–	–	–	–	–	59.2 ± 32	50.5 ± 33	80.1 ± 22	62.9 ± 29	18.4 ± 22	26.5 ± 23
COc1cc(C)ccc1O [2-Methoxy-4-methylphenol (replicate)]	–	–	–	–	–	–	51.8 ± 31	38.9 ± 26	63 ± 28	33 ± 31	39.5 ± 24	45.5 ± 20
CCC(C)CO (stereo not given) [2-Methyl-1-butanol]	–	43.7 ± 29	–	56.2 ± 33	–	38.4 ± 24	43.3 ± 31	–	32.2 ± 26	–	48.6 ± 21	–
Cc1ccc2ncccc2c1 [6-methyl quinoline]	–	44 ± 30	–	68.2 ± 27	–	36.7 ± 27	44.3 ± 31	–	50.9 ± 30	–	60.4 ± 23	–
IC(I)I [Iodoform]	52.6 ± 33	51.2 ± 29	84.4 ± 16	68.4 ± 23	30.7 ± 26	36.4 ± 22	–	–	–	–	–	–
C=CCOC(=O)c1ccco1 [Allyl 2-furoate]	–	40.9 ± 29	–	60.6 ± 29	–	31.9 ± 23	39.9 ± 27	–	27 ± 28	–	41.8 ± 21	–
Cc1cc(C(C)(C)C)c(O)c(C(C)(C)C)c1 [Butylated hydroxytoluene]	43.4 ± 29	27.7 ± 29	40.3 ± 31	16.9 ± 24	51.9 ± 24	51.4 ± 22	–	–	–	–	–	–
O=C1CCCCCC1 [Cycloheptanone]	–	52.7 ± 30	–	69 ± 28	–	40.8 ± 28	35.8 ± 30	–	26.4 ± 28	–	55 ± 19	–
CCC(=O)OCCCc1ccccc1 [3-Phenylpropyl propionate]	–	49.1 ± 28	–	62.9 ± 26	–	36.4 ± 28	38.6 ± 32	–	28.4 ± 34	–	49.8 ± 27	–
OC/C=C/c1ccccc1 [cinnamyl alcohol]	–	52.6 ± 34	–	75.8 ± 21	–	47.4 ± 31	53.7 ± 33	–	60.3 ± 28	–	42.9 ± 28	–
CCCCCCCC(=O)OCCCCC [N-Amyl octanoate]	–	42.3 ± 27	–	37.1 ± 26	–	48.4 ± 23	25.1 ± 28	–	19.5 ± 28	–	58.8 ± 24	–
Cc1ccc(C=O)o1 [5-Methylfurfural]	–	52.6 ± 31	–	59 ± 31	–	59.3 ± 24	36 ± 29	–	17.9 ± 24	–	45.8 ± 23	–
CC1CCC(=O)C1=O (stereo not given) [Methylcyclopentenolone]	63 ± 33	52.5 ± 34	84.7 ± 18	72 ± 26	35.8 ± 32	44.6 ± 30	–	–	–	–	–	–

— the supplement of paper PMC4977894
